In ChEMBL document CHEMBL4219169, “Sulfoximines as potent RORγ inverse agonists” (Bioorg Med Chem Lett, 2018):

What was measured:
[1] = Lipophilicity, log D of the compound at pH 6.5 by HPLC analysis; format: physicochemical; details: buffer
Mus musculus = assay: In vivo inverse agonist activity at RORgamma in wild type BALB/c ByJ Rj mouse model of imiquimod-induced skin inflammation model assessed as attenuation of imiquimod-induced epidermal hyperplasia at 0.01% administered topically daily for 7 days dosed 2 hrs before imiquimod administration measured on day 8 by hematoxylin and eosin staining-based histological analysis; format: functional
TK6 [2] = assay: Genotoxicity in human TK6 cells incubated for 3 hrs in absence of aroclor-1254-induced rat S9 fraction followed by 27 hrs recovery period by Giemsa staining dependent optical microscopy based micronucleus test; format: toxicity, cell-based; details: tk6, 3 h
Salmonella typhimurium [3] = assay: Genotoxicity in Salmonella typhimurium TA100 in absence of aroclor-1254-induced rat S9 fraction by Ames test; format: toxicity, organism-based; details: salmonella enterica subsp. enterica serovar typhimurium
Salmonella typhimurium [4] = assay: Genotoxicity in Salmonella typhimurium TA98 in absence of aroclor-1254-induced rat S9 fraction by Ames test; format: toxicity, organism-based; details: salmonella enterica subsp. enterica serovar typhimurium
[5] = Intrinsic clearance in human hepatocytes assessed per million cells at 1 uM incubated for 5 to 90 mins by LC-MS/MS method; format: ADME, cell-based, Hepatocyte; details: read-out: CLH
Salmonella typhimurium [6] = assay: Genotoxicity in Salmonella typhimurium TA98 in presence of aroclor-1254-induced rat S9 fraction by Ames test; format: toxicity, organism-based; details: salmonella enterica subsp. enterica serovar typhimurium
TK6 [7] = assay: Genotoxicity in human-derived p53-competent TK6 cells expressing GADD45a-dependent green fluorescent protein assessed as decrease in cell viability after 48 hrs in absence of Sprague-Dawley rat S9 fraction by FACS analysis; format: toxicity, cell-based; details: tk6, 48 h
[8] = molecular target: T1, Nuclear receptor ROR-alpha (Homo sapiens, UniProt P35398); assay: Inverse agonist activity at RORalpha (unknown origin) expressed in human HeLa-derived HG5LN cells transfected with the GAL4 DNA-binding domain fused to the RORalpha ligand-binding domain assessed as inhibition of transcriptional activity after 18 hrs by luminescence-based luciferase reporter gene assay; format: cell-based
T1 sequence (P35398 whole entry): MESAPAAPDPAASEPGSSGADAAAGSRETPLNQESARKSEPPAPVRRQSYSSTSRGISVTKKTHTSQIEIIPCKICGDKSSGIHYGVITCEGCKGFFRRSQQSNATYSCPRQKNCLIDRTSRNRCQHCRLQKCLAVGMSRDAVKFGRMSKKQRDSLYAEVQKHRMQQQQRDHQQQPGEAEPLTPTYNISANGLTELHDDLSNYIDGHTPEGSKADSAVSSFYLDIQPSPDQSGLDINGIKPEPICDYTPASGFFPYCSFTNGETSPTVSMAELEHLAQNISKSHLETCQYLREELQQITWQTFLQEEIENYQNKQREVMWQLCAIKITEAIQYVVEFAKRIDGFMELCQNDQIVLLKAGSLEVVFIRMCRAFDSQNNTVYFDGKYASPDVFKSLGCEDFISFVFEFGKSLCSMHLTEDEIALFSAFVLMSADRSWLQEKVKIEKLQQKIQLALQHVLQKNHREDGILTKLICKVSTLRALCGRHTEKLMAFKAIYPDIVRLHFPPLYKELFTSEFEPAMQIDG

TK6 [9] = assay: Genotoxicity in human TK6 cells incubated for 3 hrs in presence of aroclor-1254-induced rat S9 fraction followed by 27 hrs recovery period by Giemsa staining dependent optical microscopy based micronucleus test; format: toxicity, cell-based; details: s9, 3 h
[10] = Phototoxicity against human neonatal keratinocytes assessed as cell viability preincubated for 30 mins before 5 J/cm2 UV light irradiation for 15 mins followed by treatment medium replacement with fresh culture medium after 24 hrs by neutral red dye-based assay; details: 0.25 h
TK6 [11] = assay: Genotoxicity in human-derived p53-competent TK6 cells expressing GADD45a-dependent green fluorescent protein assessed as decrease in cell viability after 48 hrs in presence of Sprague-Dawley rat S9 fraction by FACS analysis; format: toxicity, cell-based; details: s9, 48 h
[12] = Fraction unbound in human plasma at 5 uM incubated for 4 hrs at 37 degC by LC-MS/MS method; format: ADME, cell-free
TK6 [13] = assay: Genotoxicity in human TK6 cells incubated for 27 hrs in absence of aroclor-1254-induced rat S9 fraction by Giemsa staining dependent optical microscopy based micronucleus test; format: toxicity, cell-based; details: tk6, 27 h
Salmonella typhimurium [14] = assay: Genotoxicity in Salmonella typhimurium TA100 in presence of aroclor-1254-induced rat S9 fraction by Ames test; format: toxicity, organism-based; details: salmonella enterica subsp. enterica serovar typhimurium

| SMILES | logD [1] | further results |
| --- | --- | --- |
| CCc1ccc(N(CC(C)C)S(=O)(=O)c2ccc(OCC3CCOCC3)c(CC(=O)O)c2)cc1 | 3.1 | – |
| CCc1ccc(N(CC(C)C)S(=O)(=O)c2ccc(OCC3CCOCC3)c([S+](C)[O-])c2)cc1 (stereo not drawn) | 5.4 | – |
| CCc1ccc(N(CC(C)C)S(=O)(=O)c2ccc(OCC3CCOCC3)c(S(=N)(=O)CC)c2)cc1 (stereo not drawn) | 5 | – |
| CCc1ccc(N(CC(C)C)S(=O)(=O)c2ccc(N[C@H](C)C3CCOCC3)c(S(C)(=N)=O)c2)cc1 (stereo partly drawn) | 5.6 | – |
| CCc1ccc(N(CC(C)C)S(=O)(=O)c2ccc(OCC3CCOCC3)c(CC#N)c2)cc1 | 6.5 | – |
| CCc1ccc(N(CC(C)C)S(=O)(=O)c2ccc(OC3CCOCC3)c(S(C)(=N)=O)c2)cc1 (stereo not drawn) | 4.4 | – |
| CCc1ccc(N(CC(C)C)S(=O)(=O)c2ccc(OCC3CCOCC3)c(CO)c2)cc1 [GSK2981278] | 5.9 | – |
| CCc1ccc(N(CC(C)C)S(=O)(=O)c2ccc(NCC3(CC)CCOCC3)c(S(C)(=N)=O)c2)cc1 (stereo not drawn) | 6.1 | – |
| CCc1ccc(N(CC(C)C)S(=O)(=O)c2ccc(OC3CCN(C(C)=O)CC3)c(S(C)(=N)=O)c2)cc1 (stereo not drawn) | 3.8 | – |
| CCc1ccc(N(CC(C)C)S(=O)(=O)c2ccc(OCC3CCOCC3)c(S(C)(=O)=NC)c2)cc1 (stereo not drawn) | 5.2 | – |
| CCc1ccc(N(CC(C)C)S(=O)(=O)c2ccc(OCC3CCOCC3)c(CC(N)=O)c2)cc1 | 4.8 | – |
| CCc1ccc(N(CC(C)C)S(=O)(=O)c2ccc(OCC3CCOCC3)c(S(C)(=N)=O)c2)cc1 (stereo not drawn) | 4.6 | – |
| CCc1ccc(N(CC(C)C)S(=O)(=O)c2ccc(NCC3(C)CCOCC3)c(S(C)(=N)=O)c2)cc1 (stereo not drawn) | 5.7 | – |
| CCc1ccc(N(CC(C)C)S(=O)(=O)c2ccc(OCC3CCOCC3)c(S(C)(=O)=O)c2)cc1 | 5.8 | – |
| CCCCC(=O)O[C@]1(C(=O)CO)[C@@H](C)C[C@H]2[C@@H]3CCC4=CC(=O)C=C[C@]4(C)[C@@]3(F)[C@@H](O)C[C@@]21C [BETAMETHASONE VALERATE] | – | Activity (Mus musculus): 72% |
| CCc1ccc(N(CC(C)C)S(=O)(=O)c2ccc(OCC3CCOCC3)c([S@](C)(=N)=O)c2)cc1 | – | Activity (TK6 [2]): Non-Toxic; Activity (Salmonella typhimurium [3]): Non-Toxic; Activity (Salmonella typhimurium [4]): Non-Toxic; hepatocyte CLint at 1 µM [5]: 160 µL/min/1e6 cells; Activity (Salmonella typhimurium [6]): Non-Toxic; Activity (TK6 [7]): Non-Toxic; IC50 [8]: > 10 µM; Activity (TK6 [9]): Non-Toxic; Activity [10]: Non-Toxic; Activity (TK6 [11]): Non-Toxic; fraction unbound at 4 h, 5 µM [12]: 0.049; Activity (TK6 [13]): Non-Toxic; Activity (Salmonella typhimurium [14]): Non-Toxic |
| CCc1ccc(N(CC(C)C)S(=O)(=O)c2ccc(CCN3CCOCC3)c(S(C)(=N)=O)c2)cc1 (stereo not drawn) | 4 | – |
| CCc1ccc(N(CC(C)C)S(=O)(=O)c2ccc(NCC3(O)CCOCC3)c(S(C)(=N)=O)c2)cc1 (stereo not drawn) | 4.1 | – |
| CCc1ccc(N(CC(C)C)S(=O)(=O)c2ccc(N(C)CC3CCOCC3)c(S(C)(=N)=O)c2)cc1 (stereo not drawn) | 5.2 | – |
| CCc1ccc(N(CC(C)C)S(=O)(=O)c2ccc(NCC3CCOCC3)c(S(C)(=N)=O)c2)cc1 (stereo not drawn) | 5.3 | – |
| CCc1ccc(N(CC(C)C)S(=O)(=O)c2ccc(N3CCN(C(C)=O)CC3)c(S(C)(=N)=O)c2)cc1 (stereo not drawn) | 3.8 | – |
| CCc1ccc(N(CC(C)C)S(=O)(=O)c2ccc(OCC3CCOCC3)cc2)cc1 | 7.2 | – |
| CCc1ccc(N(CC(C)C)S(=O)(=O)c2ccc(OCC3CCOCC3)c(S(N)(=O)=O)c2)cc1 | 5.3 | – |
| CCc1ccc(N(CC(C)C)S(=O)(=O)c2ccc(N[C@@H](C)C3CCOCC3)c(S(C)(=N)=O)c2)cc1 (stereo partly drawn) | 5.6 | – |
| CCc1ccc(N(CC(C)C)S(=O)(=O)c2ccc(NCC3(F)CCOCC3)c(S(C)(=N)=O)c2)cc1 (stereo not drawn) | 5.2 | – |
| CCc1ccc(N(CC(C)C)S(=O)(=O)c2ccc(OC3CCN(S(C)(=O)=O)CC3)c(S(C)(=N)=O)c2)cc1 (stereo not drawn) | 4.6 | – |
